Assay results reported in PubChem BioAssay (NCI).
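In this assay, cells in 96-well plates receive the compound at five concentrations for 48 hours. Endpoints are linearly interpolated between the surrounding concentrations. TGI: total growth inhibition.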

Columns and labels:
Test in all cases: growth of human tumour cells (NCI), 48 h
M14 melanoma = system: M14 melanoma
UACC-62 melanoma = system: UACC-62 melanoma
K-562 leukemia = system: K-562 leukemia
HL-60(TB) leukemia = system: HL-60(TB) leukemia
NCI-H522 lung = system: NCI-H522 lung
A549 NSCLC = system: A549 NSCLC
XF 498 CNS = system: XF 498 CNS
OVCAR-5 ovarian = system: OVCAR-5 ovarian
UO-31 renal = system: UO-31 renal
EKVX NSCLC = system: EKVX NSCLC
LXFL 529 NSCLC = system: LXFL 529 NSCLC
SNB-78 CNS = system: SNB-78 CNS
LOX IMVI melanoma = system: LOX IMVI melanoma
A498 renal = system: A498 renal
HOP-62 NSCLC = system: HOP-62 NSCLC
786-0 renal = system: 786-0 renal
NCI-H226 lung = system: NCI-H226 lung
SN12C renal = system: SN12C renal
SR leukemia = system: SR leukemia
SK-MEL-28 melanoma = system: SK-MEL-28 melanoma
SF-268 CNS = system: SF-268 CNS
OVCAR-3 ovarian = system: OVCAR-3 ovarian
SF-295 CNS = system: SF-295 CNS
KM20L2 colon = system: KM20L2 colon
OVCAR-4 ovarian = system: OVCAR-4 ovarian
NCI-H460 lung = system: NCI-H460 lung
UACC-257 melanoma = system: UACC-257 melanoma
TK-10 renal = system: TK-10 renal
DMS 273 small cell lung = system: DMS 273 small cell lung
HOP-92 NSCLC = system: HOP-92 NSCLC
HCT-116 colon = system: HCT-116 colon
ACHN renal = system: ACHN renal
KM12 colon = system: KM12 colon
SW-620 colon = system: SW-620 colon
OVCAR-8 ovarian = system: OVCAR-8 ovarian
IGROV1 ovarian = system: IGROV1 ovarian
MOLT-4 leukemia = system: MOLT-4 leukemia
RXF 393 renal = system: RXF 393 renal
HT29 colon = system: HT29 colon
SK-MEL-2 melanoma = system: SK-MEL-2 melanoma
NCI-H23 lung = system: NCI-H23 lung
COLO 205 colon = system: COLO 205 colon
SNB-19 CNS = system: SNB-19 CNS
SK-MEL-5 melanoma = system: SK-MEL-5 melanoma
CCRF-CEM leukemia = system: CCRF-CEM leukemia
CAKI-1 renal = system: CAKI-1 renal
RXF-631 renal = system: RXF-631 renal
RPMI-8226 leukemia = system: RPMI-8226 leukemia
SK-OV-3 ovarian = system: SK-OV-3 ovarian
SNB-75 CNS = system: SNB-75 CNS
SF-539 CNS = system: SF-539 CNS
U251 CNS = system: U251 CNS
HCT-15 colon = system: HCT-15 colon

## CCCCCCCCCCCc1noc2c1C(=O)C(O)CC2 (stereo not drawn)
M14 melanoma
  TGI: 94.6 µM
UACC-62 melanoma
  TGI: 33.8 µM
K-562 leukemia
  TGI: 42.8 µM
HL-60(TB) leukemia
  TGI: 65.5 µM
NCI-H522 lung
  TGI: 40 µM
A549 NSCLC
  TGI: 55 µM
XF 498 CNS
  TGI: 27 µM
OVCAR-5 ovarian
  TGI: 42.6 µM
UO-31 renal
  TGI: 71.2 µM
EKVX NSCLC
  TGI: > 100 µM
LXFL 529 NSCLC
  TGI: 33.1 µM
SNB-78 CNS
  TGI: 65.1 µM
LOX IMVI melanoma
  TGI: 34.4 µM
A498 renal
  TGI: 88.5 µM
HOP-62 NSCLC
  TGI: > 100 µM
786-0 renal
  TGI: 34.1 µM
NCI-H226 lung
  TGI: 35.9 µM
SN12C renal
  TGI: 30.4 µM
SR leukemia
  TGI: 78 µM
SK-MEL-28 melanoma
  TGI: 75.2 µM
SF-268 CNS
  TGI: > 100 µM
OVCAR-3 ovarian
  TGI: 34.3 µM
SF-295 CNS
  TGI: 39.6 µM
KM20L2 colon
  TGI: 31.8 µM
OVCAR-4 ovarian
  TGI: 33 µM
NCI-H460 lung
  TGI: 37.7 µM
UACC-257 melanoma
  TGI: 42.3 µM
TK-10 renal
  TGI: > 100 µM
DMS 273 small cell lung
  TGI: 30.4 µM
HOP-92 NSCLC
  TGI: 42.8 µM
HCT-116 colon
  TGI: 41.6 µM
ACHN renal
  TGI: > 100 µM
KM12 colon
  TGI: 57.1 µM
SW-620 colon
  TGI: 35.6 µM
OVCAR-8 ovarian
  TGI: 35.8 µM
IGROV1 ovarian
  TGI: > 100 µM
MOLT-4 leukemia
  TGI: 65.7 µM
RXF 393 renal
  TGI: 27.5 µM
HT29 colon
  TGI: 33.2 µM
SK-MEL-2 melanoma
  TGI: 38.7 µM
NCI-H23 lung
  TGI: 31.9 µM
COLO 205 colon
  TGI: 83 µM
SNB-19 CNS
  TGI: 67.2 µM
SK-MEL-5 melanoma
  TGI: 30.2 µM
CCRF-CEM leukemia
  TGI: 64.9 µM
CAKI-1 renal
  TGI: > 100 µM
RXF-631 renal
  TGI: 36.7 µM
RPMI-8226 leukemia
  TGI: 67.7 µM
SK-OV-3 ovarian
  TGI: 94.8 µM
SNB-75 CNS
  TGI: 84.5 µM
SF-539 CNS
  TGI: 54.7 µM
U251 CNS
  TGI: 28.3 µM
HCT-15 colon
  TGI: 43.7 µM
